Source: PubChem BioAssay (NCI)
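The compound was tested at five concentrations on cells cultured in 96-well plates, with a 48-hour exposure period. The concentration for full growth arrest is given as TGI.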

Legend:
Experiment in all cases: growth of human tumour cells (NCI), 48 h
HT29 colon = test system: HT29 colon
MOLT-4 leukemia = test system: MOLT-4 leukemia
SK-OV-3 ovarian = test system: SK-OV-3 ovarian
M14 melanoma = test system: M14 melanoma
SF-295 CNS = test system: SF-295 CNS
NCI/ADR-RES ovarian = test system: NCI/ADR-RES ovarian
UACC-62 melanoma = test system: UACC-62 melanoma
SNB-19 CNS = test system: SNB-19 CNS
MDA-MB-435 = test system: MDA-MB-435
OVCAR-5 ovarian = test system: OVCAR-5 ovarian
MCF7 breast = test system: MCF7 breast
SF-539 CNS = test system: SF-539 CNS
HS 578T breast = test system: HS 578T breast
NCI-H460 lung = test system: NCI-H460 lung
U251 CNS = test system: U251 CNS
HOP-92 NSCLC = test system: HOP-92 NSCLC
DU-145 prostate = test system: DU-145 prostate
NCI-H23 lung = test system: NCI-H23 lung
PC-3 prostate = test system: PC-3 prostate
MDA-N = test system: MDA-N
EKVX NSCLC = test system: EKVX NSCLC
SW-620 colon = test system: SW-620 colon
SK-MEL-2 melanoma = test system: SK-MEL-2 melanoma
SF-268 CNS = test system: SF-268 CNS
UO-31 renal = test system: UO-31 renal
NCI-H522 lung = test system: NCI-H522 lung
SN12C renal = test system: SN12C renal
CAKI-1 renal = test system: CAKI-1 renal
OVCAR-8 ovarian = test system: OVCAR-8 ovarian
HCC-2998 colon = test system: HCC-2998 colon
SK-MEL-28 melanoma = test system: SK-MEL-28 melanoma
T-47D breast = test system: T-47D breast
COLO 205 colon = test system: COLO 205 colon
UACC-257 melanoma = test system: UACC-257 melanoma
KM12 colon = test system: KM12 colon
HOP-62 NSCLC = test system: HOP-62 NSCLC
A549 NSCLC = test system: A549 NSCLC
ACHN renal = test system: ACHN renal
CCRF-CEM leukemia = test system: CCRF-CEM leukemia
K-562 leukemia = test system: K-562 leukemia
HCT-15 colon = test system: HCT-15 colon
MDA-MB-231 breast = test system: MDA-MB-231 breast
OVCAR-3 ovarian = test system: OVCAR-3 ovarian
LOX IMVI melanoma = test system: LOX IMVI melanoma
OVCAR-4 ovarian = test system: OVCAR-4 ovarian
HCT-116 colon = test system: HCT-116 colon
MALME-3M melanoma = test system: MALME-3M melanoma
BT-549 breast = test system: BT-549 breast
RXF 393 renal = test system: RXF 393 renal
786-0 renal = test system: 786-0 renal
IGROV1 ovarian = test system: IGROV1 ovarian
SNB-75 CNS = test system: SNB-75 CNS
SK-MEL-5 melanoma = test system: SK-MEL-5 melanoma
TK-10 renal = test system: TK-10 renal
HL-60(TB) leukemia = test system: HL-60(TB) leukemia
SR leukemia = test system: SR leukemia
A498 renal = test system: A498 renal
NCI-H226 lung = test system: NCI-H226 lung
RPMI-8226 leukemia = test system: RPMI-8226 leukemia

Measured: TGI

O=C(Nc1ccc(N2C(=O)CSC2c2cccs2)cc1)c1ccc(N2C(=O)CSC2c2cccs2)cc1 (stereo unspecified)
96.4 µM: NCI-H23 lung
> 100 µM: HT29 colon | MOLT-4 leukemia | SK-OV-3 ovarian | M14 melanoma | SF-295 CNS | NCI/ADR-RES ovarian | UACC-62 melanoma | SNB-19 CNS | MDA-MB-435 | OVCAR-5 ovarian | MCF7 breast | SF-539 CNS | HS 578T breast | NCI-H460 lung | U251 CNS | HOP-92 NSCLC | DU-145 prostate | PC-3 prostate | MDA-N | EKVX NSCLC | SW-620 colon | SK-MEL-2 melanoma | SF-268 CNS | UO-31 renal | NCI-H522 lung | SN12C renal | CAKI-1 renal | OVCAR-8 ovarian | HCC-2998 colon | SK-MEL-28 melanoma | T-47D breast | COLO 205 colon | UACC-257 melanoma | KM12 colon | HOP-62 NSCLC | A549 NSCLC | ACHN renal | CCRF-CEM leukemia | K-562 leukemia | HCT-15 colon | MDA-MB-231 breast | OVCAR-3 ovarian | LOX IMVI melanoma | OVCAR-4 ovarian | HCT-116 colon | MALME-3M melanoma | BT-549 breast | RXF 393 renal | 786-0 renal | IGROV1 ovarian | SNB-75 CNS | SK-MEL-5 melanoma | TK-10 renal

CN1CC(S(=O)(=O)c2ccccc2)CC(S(=O)(=O)c2ccccc2)C1c1ccccc1 (stereo unspecified)
25.7 µM: SN12C renal
38.7 µM: KM12 colon
29.4 µM: UO-31 renal
37.3 µM: RXF 393 renal
25.5 µM: 786-0 renal
34.5 µM: OVCAR-4 ovarian
32.6 µM: EKVX NSCLC
42.1 µM: M14 melanoma
30.3 µM: HCC-2998 colon
27.6 µM: MALME-3M melanoma
> 100 µM: MOLT-4 leukemia | SK-OV-3 ovarian | SF-295 CNS | NCI/ADR-RES ovarian | OVCAR-8 ovarian | A549 NSCLC | IGROV1 ovarian
20 µM: SK-MEL-2 melanoma
32.7 µM: OVCAR-5 ovarian
78.3 µM: SR leukemia
65.5 µM: NCI-H226 lung
31.8 µM: MDA-MB-231 breast
41 µM: UACC-257 melanoma
26.9 µM: ACHN renal
25.8 µM: U251 CNS
34.4 µM: SW-620 colon
30 µM: MCF7 breast
22.9 µM: HCT-116 colon
60.8 µM: DU-145 prostate
29.7 µM: LOX IMVI melanoma
29 µM: UACC-62 melanoma
84.1 µM: HS 578T breast
59.6 µM: SNB-19 CNS
28.8 µM: MDA-N
31.7 µM: A498 renal
13.1 µM: NCI-H522 lung
29.6 µM: HT29 colon
27.8 µM: OVCAR-3 ovarian
28.5 µM: BT-549 breast
27.1 µM: PC-3 prostate
54.6 µM: HOP-62 NSCLC
36.9 µM: SF-539 CNS
95.2 µM: K-562 leukemia
28 µM: COLO 205 colon | TK-10 renal
28.3 µM: MDA-MB-435
26 µM: CAKI-1 renal
36.7 µM: SK-MEL-28 melanoma
50.6 µM: T-47D breast
37.7 µM: HOP-92 NSCLC | SF-268 CNS
32.2 µM: HL-60(TB) leukemia | HCT-15 colon
28.6 µM: SK-MEL-5 melanoma
49.4 µM: NCI-H460 lung

O=C(O)c1nc2cc(C(F)(F)F)ccc2[nH]c1=O
> 100 µM: HT29 colon | MOLT-4 leukemia | SK-OV-3 ovarian | M14 melanoma | SF-295 CNS | NCI/ADR-RES ovarian | UACC-62 melanoma | SNB-19 CNS | MDA-MB-435 | OVCAR-5 ovarian | MCF7 breast | SF-539 CNS | HS 578T breast | NCI-H460 lung | U251 CNS | HOP-92 NSCLC | DU-145 prostate | NCI-H23 lung | PC-3 prostate | HL-60(TB) leukemia | MDA-N | EKVX NSCLC | SW-620 colon | SK-MEL-2 melanoma | SF-268 CNS | UO-31 renal | NCI-H522 lung | SN12C renal | CAKI-1 renal | SR leukemia | OVCAR-8 ovarian | HCC-2998 colon | SK-MEL-28 melanoma | T-47D breast | COLO 205 colon | UACC-257 melanoma | KM12 colon | HOP-62 NSCLC | A549 NSCLC | ACHN renal | CCRF-CEM leukemia | A498 renal | K-562 leukemia | HCT-15 colon | MDA-MB-231 breast | NCI-H226 lung | OVCAR-3 ovarian | LOX IMVI melanoma | OVCAR-4 ovarian | HCT-116 colon | MALME-3M melanoma | BT-549 breast | 786-0 renal | IGROV1 ovarian | SK-MEL-5 melanoma | RPMI-8226 leukemia | TK-10 renal
